Read-outs that look alike come from different tables or passages of the source.
Tests used:
[1] = molecular target: T1, LecA (Pseudomonas aeruginosa, UniProt Q05097); assay: Competitive binding assay based on fluorescence polarization
T1 construct: made in house
Protocol: All synthesized galactosides were then evaluated for LecA inhibition using a competitive binding assay based on fluorescence polarization (Figure S1).[24]
Expression and purification of LecA as well as competitive binding by fluorescence polarization was performed as described by Joachim et al..[9] The assay was performed in TBS/Ca2+ buffer (20 mM Tris, 137 mM NaCl, 2.6 mM KCl at pH 7.4 supplemented with 1 mM CaCl2) in presence of 25% DMSO. Averages and standard deviations were calculated from at least three independent experiments. […]
RR OR In h i b i to r [µ M ]
R R In h i b i to r [µ M ] […]
R In h i b i to r [µ M ] 30 L2
30 F2 40 K2 In h i b i to r [µ M ] […]
In h i b i to r [µ M ] In h i b i to r [µ M ]
Figure S1: Evaluation of amide divalent LecA ligands in a competitive binding assay based on fluorescence […]
representative experiment is shown or each series. Averages and standard deviations from at least three independent titrations of triplicates each.
[…] Fluorescence polarization [mP] -1 0 1 2 3 0 1001010 Me-α-Gal pNO2-Ph-β-Gal 1000 Inhibitor [µM] Fluorescence polarization [mP])

[2] = molecular target: T1, LecA; assay: Direct binding to immobilized LecA by surface plasmon resonance (SPR); settings: for Relative potency r.p. (SPR): compared to respective monovalent compound in each series; for kon: SPR single-cycle kinetics, 25 °C, N=3 (I1 N=1)
Protocol: K d values were oscillating with the number of methylene units present in the linker, presumably linked to the zig‐zag geometry of the hydrocarbon chain.
Expression and purification of LecA as well as competitive binding by fluorescence polarization was performed as described by Joachim et al..[9] […]
Surface plasmon resonance experiments were performed on a BIACORE X100 instrument (GE Healthcare) at 25 °C as described by Zahorska et. al..[8] Averages and standard deviations were calculated from three independent experiments. […]
Figure S3: SPR of divalent LecA ligands from benzene series. Sensorgrams obtained from SPR single-cycle kinetics experiments. Five different concentrations of each compound (0, 10, 50, 100, 200 nM) were sequentially injected to obtain the experimental sensorgrams (blue lines), which were then fitted by a 1:1 model (orange) on BIACORE evaluation software. […]
Figure S4: SPR of divalent LecA ligands from pyridine and sulfonated series. Sensorgrams obtained from SPR single-cycle kinetics experiments. Five different concentrations of each compound (0, 10, 50, 100, 200 nM) were sequentially injected to obtain the experimental sensorgrams (blue lines), which were then fitted by a 1:1 model (orange) on BIACORE evaluation software.
(also on this page, place not known: Response (RU)0 Response (RU)0 Response (RU) Response (RU) Response (RU) Response (RU) 030060090012001500) […]

T1 sequence (Q05097 whole entry): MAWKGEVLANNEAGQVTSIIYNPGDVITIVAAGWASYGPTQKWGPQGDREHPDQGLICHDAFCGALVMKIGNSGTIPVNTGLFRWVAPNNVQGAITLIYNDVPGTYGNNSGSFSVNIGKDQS

COc1ccc(NC(=O)/C=C/c2ccc(O[C@@H]3O[C@H](CO)[C@H](O)[C@H](O)[C@H]3O)cc2)cc1 [Compound A1]
IC50 [1]: 18.8 ± 6.6 µM | Kd [2]: 5.21 ± 0.6 µM | Relative potency r.p. (SPR) [2]: 1

O=C(/C=C/c1ccc(O[C@@H]2O[C@H](CO)[C@H](O)[C@H](O)[C@H]2O)cc1)Nc1ccc(OCCCOc2ccc(NC(=O)/C=C/c3ccc(O[C@@H]4O[C@H](CO)[C@H](O)[C@H](O)[C@H]4O)cc3)cn2)nc1 [Compound I1]
IC50 [1]: 6.6 ± 4 µM | Kd [2]: 0.0402 µM | koff [2]: 0.00227 s⁻¹ | kon [2]: 68200 M⁻¹ s⁻¹ | Relative potency r.p. (SPR) [2]: 74

O=[N+]([O-])c1ccc(O[C@@H]2O[C@H](CO)[C@H](O)[C@H](O)[C@H]2O)cc1 [pNO2-Ph-β-Gal, reference compound]
IC50 ([1]; TBS/Ca2+ buffer, 25% DMSO, divalent ligands at lower assay limit, read-out: IC50 (LecA competitive binding, fluorescence polarization)): 39.8 ± 12 µM

COc1ccc(NC(=O)CCc2ccc(O[C@@H]3O[C@H](CO)[C@H](O)[C@H](O)[C@H]3O)cc2)cc1 [Compound A2]
IC50 [1]: 18.9 ± 5.5 µM | Kd [2]: 5.38 ± 0.09 µM | Relative potency r.p. (SPR) [2]: 1

O=C(/C=C/c1ccc(O[C@@H]2O[C@H](CO)[C@H](O)[C@H](O)[C@H]2O)cc1)Nc1ccc(Oc2ccc(NC(=O)/C=C/c3ccc(O[C@@H]4O[C@H](CO)[C@H](O)[C@H](O)[C@H]4O)cc3)cc2)cc1 [Compound B1]
IC50 [1]: 6.6 ± 1.5 µM | Kd [2]: 0.0673 ± 0.0094 µM | koff [2]: 0.00596 ± 0.00206 s⁻¹ | kon [2]: 89 ± 29 x10^3/Ms | Relative potency r.p. (SPR) [2]: 77

O=C(CCc1ccc(O[C@@H]2O[C@H](CO)[C@H](O)[C@H](O)[C@H]2O)cc1)Nc1ccc(OCCCOc2ccc(NC(=O)CCc3ccc(O[C@@H]4O[C@H](CO)[C@H](O)[C@H](O)[C@H]4O)cc3)cc2)cc1 [Compound E2]
IC50 [1]: 3.5 ± 1 µM | Kd [2]: 0.0185 ± 0.0015 µM | koff [2]: 0.00345 ± 0.00013 s⁻¹ | kon [2]: 187 ± 13 x10^3/Ms | Relative potency r.p. (SPR) [2]: 291

O=C(CCc1ccc(O[C@@H]2O[C@H](CO)[C@H](O)[C@H](O)[C@H]2O)cc1)Nc1ccc(OCOc2ccc(NC(=O)CCc3ccc(O[C@@H]4O[C@H](CO)[C@H](O)[C@H](O)[C@H]4O)cc3)cc2)cc1 [Compound C2]
IC50 [1]: 4.2 ± 1.7 µM | Kd [2]: 0.0153 ± 0.0006 µM | koff [2]: 0.00462 ± 0.0002 s⁻¹ | kon [2]: 303 ± 20 x10^3/Ms | Relative potency r.p. (SPR) [2]: 352

O=C(CCc1ccc(O[C@@H]2O[C@H](CO)[C@H](O)[C@H](O)[C@H]2O)cc1)Nc1ccc(Oc2ccc(NC(=O)CCc3ccc(O[C@@H]4O[C@H](CO)[C@H](O)[C@H](O)[C@H]4O)cc3)cc2)cc1 [Compound B2]
IC50 [1]: 3.6 ± 1.3 µM | Kd [2]: 0.0221 ± 0.0003 µM | koff [2]: 0.00349 ± 8e-05 s⁻¹ | kon [2]: 158 ± 5.7 x10^3/Ms | Relative potency r.p. (SPR) [2]: 244

O=C(/C=C/c1ccc(O[C@@H]2O[C@H](CO)[C@H](O)[C@H](O)[C@H]2O)cc1)Nc1ccc(OCCCCOc2ccc(NC(=O)/C=C/c3ccc(O[C@@H]4O[C@H](CO)[C@H](O)[C@H](O)[C@H]4O)cc3)cc2)cc1 [Compound F1]
IC50 [1]: 7.9 ± 4.8 µM | Kd [2]: 2.25 ± 0.3 µM | koff [2]: 0.00388 ± 0.00043 s⁻¹ | kon [2]: 1.75 ± 0.3 x10^3/Ms | Relative potency r.p. (SPR) [2]: 2

O=C(/C=C/c1ccc(O[C@@H]2O[C@H](CO)[C@H](O)[C@H](O)[C@H]2O)cc1)Nc1ccc(OCOc2ccc(NC(=O)/C=C/c3ccc(O[C@@H]4O[C@H](CO)[C@H](O)[C@H](O)[C@H]4O)cc3)cc2)cc1 [Compound C1]
IC50 [1]: 4.7 ± 2.6 µM | Kd [2]: 0.0377 ± 0.011 µM | koff [2]: 0.00379 ± 0.00089 s⁻¹ | kon [2]: 110 ± 52 x10^3/Ms | Relative potency r.p. (SPR) [2]: 138

O=C(CCc1ccc(O[C@@H]2O[C@H](CO)[C@H](O)[C@H](O)[C@H]2O)cc1)Nc1ccc(OCCCCOc2ccc(NC(=O)CCc3ccc(O[C@@H]4O[C@H](CO)[C@H](O)[C@H](O)[C@H]4O)cc3)cc2)cc1 [Compound F2]
IC50 [1]: 4.4 ± 1.5 µM | Kd [2]: 0.0231 ± 0.011 µM | koff [2]: 0.00366 ± 0.00042 s⁻¹ | kon [2]: 175 ± 55 x10^3/Ms | Relative potency r.p. (SPR) [2]: 233

O=C(/C=C/c1ccc(O[C@@H]2O[C@H](CO)[C@H](O)[C@H](O)[C@H]2O)cc1)Nc1ccc(OCCCOc2ccc(NC(=O)/C=C/c3ccc(O[C@@H]4O[C@H](CO)[C@H](O)[C@H](O)[C@H]4O)cc3)cc2)cc1 [Compound E1]
IC50 [1]: 4.5 ± 1.6 µM | Kd [2]: 0.156 ± 0.038 µM | koff [2]: 0.00251 ± 0.00022 s⁻¹ | kon [2]: 16.9 ± 5.2 x10^3/Ms | Relative potency r.p. (SPR) [2]: 33

Reference: PMC10107299, “Neutralizing the Impact of the Virulence Factor LecA from Pseudomonas aeruginosa on Human Cells with New Glycomimetic Inhibitors” (Angewandte Chemie (International Ed. in English), 2023)
